Drawing on patent US20240336593A1, “Compound Having Antitumor Activity And Use Thereof” (lnnovStoneTherapeutics Limited, priority 2020, published 2024), this text covers IC50 for 23 compounds.

For the experiment, the target named is PRMT5 (Homo sapiens (Human), UniProt O14744). Kind of experiment: Inhibitory activity against PRMT5 enzyme by radioisotopic method. Format: biochemical. The conditions noted are these: PRMT5 5 nM, [3H]-SAM 0.3 μM, polypeptide substrate GL-27 100 nM, room temperature. As for the experimental part: Test Example 1. Test on the inhibitory activity of the compounds of the invention against PRMT5 enzyme by radioisotopic method
PRMT5, sequence (O14744 whole entry): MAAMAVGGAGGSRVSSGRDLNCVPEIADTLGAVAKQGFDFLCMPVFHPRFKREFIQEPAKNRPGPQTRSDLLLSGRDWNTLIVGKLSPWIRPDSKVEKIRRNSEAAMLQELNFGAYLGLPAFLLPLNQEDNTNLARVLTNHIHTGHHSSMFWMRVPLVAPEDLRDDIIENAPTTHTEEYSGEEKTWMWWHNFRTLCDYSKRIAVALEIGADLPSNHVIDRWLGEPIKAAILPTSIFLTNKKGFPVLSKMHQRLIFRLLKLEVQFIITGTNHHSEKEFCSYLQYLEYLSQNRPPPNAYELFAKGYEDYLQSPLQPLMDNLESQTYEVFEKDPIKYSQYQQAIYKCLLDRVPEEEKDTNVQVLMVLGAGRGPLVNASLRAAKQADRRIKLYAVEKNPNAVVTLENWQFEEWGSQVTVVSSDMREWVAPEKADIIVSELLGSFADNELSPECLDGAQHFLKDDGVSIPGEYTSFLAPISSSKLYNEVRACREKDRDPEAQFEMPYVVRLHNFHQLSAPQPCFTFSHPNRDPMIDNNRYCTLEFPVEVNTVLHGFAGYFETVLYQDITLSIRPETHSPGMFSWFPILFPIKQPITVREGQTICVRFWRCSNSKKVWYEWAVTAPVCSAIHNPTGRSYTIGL
PRMT5, sequence (Q9BQA1 whole entry partner): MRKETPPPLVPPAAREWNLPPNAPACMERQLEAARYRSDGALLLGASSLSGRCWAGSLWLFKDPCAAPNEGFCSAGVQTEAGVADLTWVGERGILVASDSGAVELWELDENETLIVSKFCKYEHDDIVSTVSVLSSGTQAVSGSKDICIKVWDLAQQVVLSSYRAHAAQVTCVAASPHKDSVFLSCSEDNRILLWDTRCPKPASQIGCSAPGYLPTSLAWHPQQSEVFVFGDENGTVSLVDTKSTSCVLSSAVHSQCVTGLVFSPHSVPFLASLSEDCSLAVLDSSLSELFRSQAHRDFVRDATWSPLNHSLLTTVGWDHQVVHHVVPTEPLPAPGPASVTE
Test method: A 1× enzyme reaction buffer (10 mM Tris 8.0 (Sigma, Cat. No. T2694-1L), 0.01% Tween-20 (Sigma, Cat. No. P2287-100 ML), 1 mM DTT (Sigma, Cat. No. D0632-10G)) was prepared. PRMT5 (Active Motif, Cat. No. 31921) and [3H]—SAM (PerkinElmer, Cat. No. NET155V001MC) were added to the 1×enzyme reaction buffer, to prepare a 25/15× mixed solution (PRMT5 final concentration: 5 nM, [3H]—SAM final concentration: 0.3 μM). 15 μL of this solution was transferred into a 384-well microplate (Corning 384-well Polypropylene Storage Microplates, Cat. No. 3657) with various concentrations of the compounds (DMSO final concentration 1%), and incubated at room temperature for 60 minutes. A polypeptide substrate, GL-27 (Ac-[…]-K (Biotin) (GL Biochem, Cat. No. 342095)), was added into the 1×enzyme reaction buffer to prepare a 25/10× substrate solution. Then 10 μL of the polypeptide substrate solution (final concentration of the polypeptide substrate: 100 nM) was added, a reaction was stirred at room temperature for 120 minutes, and then 5 μL 6× ice cold SAM (Sigma, Cat. No. A7007-100 MG) solution was added to stop the reaction (SAM final concentration: 0.125 mM). 25 µL of the reaction mixture was transferred into a FlashPlate (Streptavidin FlashPlate HTS PLUS, High Capacity, 384-well, Perkin Elmer, Cat. No. SMP410A001PK), and incubated at room temperature for 1 h. After washed three times with distilled water containing 0.1% Tween-20, the microplate was read on a MicroBeta reader for CPM data (Counts Per Minute). […] Then the inhibition rate Inh % (Y) corresponding to each concentration (X) was input in EXCEL, and the IC50 value (the half maximal inhibitory concentration) of each compound was calculated with the XLfit plug-in according to the built-in four-parameter fitting equation Y=Bottom+(Top-Bottom)/(1+(IC50/X)[…]).
What is called IC50 is the concentration that gives 50% inhibition. Low values mean higher potency, high ones lower potency. As for `O[C@H]1CN(c2cc(Nc3ccccc3-c3ccccc3)ncn2)CC[C@@H]1N1CCc2ccccc2C1` (relative stereo) [Example 66, trans-1-(6-([1,1′-biphenyl]-2-ylamino)pyrimidin-4-yl)-4-(3,4-dihydro-isoquinolin-2(1H)-yl)piperidin-3-ol], the IC50 was < 0.1 µM.
With `O[C@@H]1CN(c2cc(Nc3cccc(N4CCCC4)c3)ncn2)CC[C@H]1N1CCc2ccccc2C1` (relative stereo) [Example 67, trans-4-(3,4-dihydroisoquinolin-2(1H)-yl)-1-(6-((3-(pyrrolidin-1-yl)phenyl)amino)pyrimidin-4-yl)piperidin-3-ol] the figure was < 0.1 µM.
In the case of `O[C@@H]1CN(c2cc(Nc3cccc(N4CCOCC4)c3)ncn2)CC[C@H]1N1CCc2ccccc2C1` (relative stereo) [Example 73, trans-4-(3,4-dihydroisoquinolin-2(1H)-yl)-1-(6-((3-morpholinophenyl)amino)pyrimidin-4-yl)piperidin-3-ol], the IC50 was < 0.1 µM.
`O[C@@H]1CN(c2cc(Nc3cccc(-c4ccccc4)c3)ncn2)CC[C@H]1N1CCc2ccccc2C1` (relative stereo) [Example 74, trans-1-(6-([1,1′-biphenyl]-3-ylamino)pyrimidin-4-yl)-4-(3,4-dihydroisoquinolin-2(1H)-yl)piperidin-3-ol]: the IC50 is < 0.1 µM.
For the compound `O[C@H]1CN(c2cc(Nc3ccc(F)c(F)c3)ncn2)CC[C@@H]1N1CCc2ccccc2C1` (relative stereo) [Example 78, trans-1-(6-((3,4-difluorophenyl)amino)pyrimidin-4-yl)-4-(3,4-dihydroisoquinolin-2(1H)-yl)piperidin-3-ol], the IC50 is < 0.1 µM.
As for `O[C@@H]1CN(c2cc(Nc3ccccc3N3CCCC3)ncn2)CC[C@H]1N1CCc2ccccc2C1` (relative stereo) [Example 80, trans-4-(3,4-dihydroisoquinolin-2(1H)-yl)-1-(6-((2-(pyrrolidin-1-yl)phenyl)amino)pyrimidin-4-yl)piperidin-3-ol], the IC50 was < 0.1 µM.
`O[C@H]1CN(c2cc(Nc3ccccc3OC(F)(F)F)ncn2)CC[C@@H]1N1CCc2ccccc2C1` (relative stereo) [Example 84, trans-4-(3,4-dihydroisoquinolin-2(1H)-yl)-1-(6-((2-(trifluoromethoxy)-phenyl)amino)pyrimidin-4-yl)piperidin-3-ol]: the IC50 was < 0.1 µM.
For `O[C@@H]1CN(c2cc(Nc3cccc(F)c3F)ncn2)CC[C@H]1N1CCc2ccccc2C1` (relative stereo) [Example 87, trans-1-(6-((2,3-difluorophenyl)amino)pyrimidin-4-yl)-4-(3,4-dihydroisoquinolin-2(1H)-yl)piperidin-3-ol], the IC50 was < 0.1 µM.
With `COc1c(F)cccc1Nc1cc(N2CC[C@@H](N3CCc4ccccc4C3)[C@H](O)C2)ncn1` (relative stereo) [Example 88, trans-1-(6-((3-fluoro-2-methoxyphenyl)amino)pyrimidin-4-yl)-4-(3,4-dihydroisoquinolin-2(1H)-yl)piperidin-3-ol] the figure was < 0.1 µM; with `CCOc1ccccc1Nc1cc(N2CC[C@@H](N3CCc4ccccc4C3)[C@H](O)C2)ncn1` (relative stereo) [Example 90, trans-1-(6-((2-ethoxyphenyl)amino)pyrimidin-4-yl)-4-(3,4-dihydroisoquinolin-2(1H)-yl)piperidin-3-ol], < 0.1 µM.
As to `O[C@@H]1CN(c2cc(Nc3ccccc3OCC(F)(F)F)ncn2)CC[C@H]1N1CCc2ccccc2C1` (relative stereo) [Example 91, trans-1-(6-((2-(2,2,2-trifluoroethoxy)phenyl)amino)pyrimidin-4-yl)-4-(3,4-dihydroisoquinolin-2(1H)-yl)piperidin-3-ol], the IC50 is < 0.1 µM.
As for `COc1ccc(F)cc1Nc1cc(N2CC[C@@H](N3CCc4ccccc4C3)[C@H](O)C2)ncn1` (relative stereo) [Example 92, trans-1-(6-((5-fluoro-2-methoxyphenyl)amino)pyrimidin-4-yl)-4-(3,4-dihydroisoquinolin-2(1H)-yl)piperidin-3-ol], the half-inhibitory concentration (IC50) was < 0.1 µM.
For the compound `COc1cc(F)ccc1Nc1cc(N2CC[C@H](N3CCc4ccccc4C3)[C@@H](O)C2)ncn1` (relative stereo) [Example 93, trans-4-(3,4-dihydroisoquinolin-2(1H)-yl)-1-(6-((4-fluoro-2-methoxyphenyl)amino)pyrimidin-4-yl)piperidin-3-ol], the IC50 is < 0.1 µM.
With `O[C@H]1CN(c2cc(Nc3cccc4c3OCCO4)ncn2)CC[C@@H]1N1CCc2ccccc2C1` (relative stereo) [Example 94, trans-1-(6-((2,3-dihydrobenzo[b][1,4]dioxin-5-yl)amino)pyrimidin-4-yl)-4-(3,4-dihydroisoquinolin-2(1H)-yl)piperidin-3-ol] the figure was < 0.1 µM.
In the case of `O[C@@H]1CN(c2cc(Nc3ccc(N4CCCC4)cc3)ncn2)CC[C@H]1N1CCc2ccccc2C1` (relative stereo) [Example 95, trans-4-(3,4-dihydroisoquinolin-2(1H)-yl)-1-(6-((4-(pyrrolidin-1-yl)phenyl)amino)pyrimidin-4-yl)piperidin-3-ol], the IC50 was < 0.1 µM.
The figure for `O=C(C(=O)N1CCC2(CC1)CC(Nc1cc(C(=O)N3CC[C@H](N4CCc5ccccc5C4)[C@@H](O)C3)ncn1)C2)C1CC1` (relative stereo) [Example 98, 1-cyclopropyl-2-(2-((6-(trans-4-(3,4-dihydroisoquinolin-2(1H)-yl)-3-hydroxypiperidine-1-carbonyl)pyrimidin-4-yl)amino)-7-azaspiro[3.5]nonan-7-yl)ethane-1,2-dione] is < 0.1 µM; for `O=C(C(=O)N1CCC(Nc2cc(C(=O)N3CC[C@H](N4CCc5ccccc5C4)[C@@H](O)C3)ncn2)CC1)C1CC1` (relative stereo) [Example 99, trans-1-cyclopropyl-2-(4-((6-(4-(3,4-dihydroisoquinolin-2(1H)-yl)-3-hydroxypiperidine-1-carbonyl)pyrimidin-4-yl)amino)piperidin-1-yl)ethane-1,2-dione] it is < 0.1 µM.
Take `CC(=O)N1CCC(Nc2cc(C(=O)N3CC[C@H](N4CCc5ccccc5C4)[C@@H](O)C3)c(C(F)(F)F)cn2)CC1` (relative stereo) [Example 102, trans-1-(4-((4-(4-(3,4-dihydroisoquinolin-2(1H)-yl)-3-hydroxypiperidine-1-carbonyl)-5-(trifluoromethyl)pyridin-2-yl)amino)piperidin-1-yl)ethan-1-one]: the IC50 was < 0.1 µM.
With `CC(=O)N1CCCC(Nc2cc(C(=O)N3CC[C@H](N4CCc5ccccc5C4)[C@@H](O)C3)ncn2)C1` (relative stereo) [Example 106, trans-1-(3-((6-(4-(3,4-dihydroisoquinolin-2(1H)-yl)-3-hydroxypiperidine-1-carbonyl)pyrimidin-4-yl)amino)piperidin-1-yl)ethan-1-one] the figure was < 0.1 µM.
As for `CC(C)(C)OC(=O)N1CCC(Nc2cc(C(=O)N3CC[C@H](N4CCc5ccccc5C4)[C@@H](O)C3)ncn2)CC1` (relative stereo) [Example 110, t-butyl trans-4-((6-(4-(3,4-dihydroisoquinolin-2(1H)-yl)-3-hydroxypiperidine-1-carbonyl)pyrimidin-4-yl)amino)piperidine-1-carboxylate], the IC50 is < 0.1 µM.
Take `CC(=O)N1CCC(Nc2cc(C(=O)N3CC[C@H](N4CCc5ccccc5C4)[C@@H](O)C3)nc(C)n2)CC1` (relative stereo) [Example 111, trans-1-(4-((6-(4-(3,4-dihydroisoquinolin-2(1H)-yl)-3-hydroxypiperidine-1-carbonyl)-2-methylpyrimidin-4-yl)amino)piperidin-1-yl)ethan-1-one]: the IC50 was < 0.1 µM.
As to `COCC(=O)N1CCC(Nc2cc(C(=O)N3CC[C@H](N4CCc5ccccc5C4)[C@@H](O)C3)ncn2)CC1` (relative stereo) [Example 113, 1-(4-((6-(trans-4-(3,4-dihydroisoquinolin-2(1H)-yl)-3-hydroxypiperidine-1-carbonyl)pyrimidin-4-yl)amino)piperidin-1-yl)-2-methoxyethan-1-one], the IC50 is < 0.1 µM.
Turning to `CC(=O)N1CCC(CCNc2cc(C(=O)N3CC[C@H](N4CCc5ccccc5C4)[C@@H](O)C3)ncn2)CC1` (relative stereo) [Example 115, trans-1-(4-(2-((6-(4-(3,4-dihydroisoquinolin-2(1H)-yl)-3-hydroxy-piperidine-1-carbonyl)pyrimidin-4-yl)amino)ethyl)piperidin-1-yl)ethanone], the IC50 is < 0.1 µM.
